Legend:
[1] = Log D7.4 / Log P by n-octanol partitioning (UV–vis); format: physicochemical; conditions: for Log D7.4: PBS (pH 7.4)/n-octanol
Description: PBS (pH 7.4) and n-octanol were fully degassed before use. After adding 20 μL of 100 mM stock solution of DNIC–COOH in DMSO to 19.98 mL of PBS (pH 7.4), 2 mL of this 100 μM DNIC–COOH solution was added with 2 mL of n-octanol. This mixture solution was vortexed thoroughly for 30 s and incubated until the two solutions were separated. UV–vis spectra of DNIC–COOH in PBS (pH 7.4) and n-octanol were measured in order to determine Log D7.4 using the equation shown below:[96] [drawing 1] AO is the A362 in n-octanol, and APBS is the A362 in PBS (pH 7.4) after partitioning. Log D7.4 for DNIC–COOMe was determined in a similar manner. On the other hand, the Log P value for DNIC–COOH was measured based on its distribution in ddH2O and n-octanol using a similar procedure.[97],[98]

[2] = system: cGMP; assay: DNIC-induced cGMP formation in MSC (confocal immunofluorescence); format: cell-based, human; conditions: 100 μM DNIC–COOH or 2.5 μM DNIC–COOMe, 2 h
Description: The MSC cells were plated on a cover glass (18 mm in diameter) loaded into a 24-well plate at a density of 1.7 × 10^3 cells/well until the desired confluency was reached. After the culture media were removed, 100 μM of DNIC–COOH (or 2.5 μM of DNIC–COOMe) was added to the cell culture and incubated for 2 h. The culture media were removed before the MSC cells were washed three times with PBS, whereas the washed MSC cells were further fixed with 4% paraformaldehyde (PFA) solution for 15 min at room temperature. After the PFA solution was removed, the MSC cells were washed twice with PBS for 3 min and permeabilized using 0.1% Triton X-100 (in PBS) at room temperature for 4 min. Subsequently, the MSC cells were washed twice with PBS for 3 min and incubated with a blocking buffer (2.5% BSA in PBS) at room temperature for 30 min. Then, the MSC cells were incubated with primary antibody solution (1:1000 for rabbit anti-cGMP antibody, purchased from Biorbyt, Cambridge, U.K.) at room temperature for 1 h before the MSC cells were washed three times with PBS for 3 min. Cover glasses containing the fixed MSC cells were mounted onto a microscope slide loaded with Fluoroshield mounting medium with DAPI to stain the nuclei before the optical images were captured using a confocal imaging system (Leica TCS-SP-X AOBS).

[3] = system: MSC; assay: Survival of MSC under oxygen–glucose-deprived (OGD) condition; format: cell-based, human; conditions: MSC pretreated with DNIC, glucose-free DMEM, 1% oxygen, 48 h
Description: Cell viability study of MSC, N2a, and HCEC cells with or without the treatment of DNIC–COOH was performed using a Cell Counting Kit-8 (IMT Formosa New Materials Co., Ltd., Taiwan) according to the manufacturer’s protocol. Briefly, cells were seeded into a 96-well plate at a density of 4 × 10^3 cells/well for MSC, 1 × 10^4 cells/well for N2a, and 8 × 10^3 cells/well for HCEC, respectively, and incubated overnight. On the next day, cells were treated with DNIC–COOH at different concentrations and incubated for 24 h. The culture medium was then removed before the cells were washed with DPBS. After addition of fresh medium containing CCK-8 solution to the cells and incubation for 1–3 h, the absorbance at 450 nm was then measured on a microplate reader (SpectraMax iD3, Molecular Devices, San Jose, CA) with a reference wavelength of 650 nm. Three independent experiments were executed, and the results were represented as mean ± SEM% (n = 3) with the untreated cells (control) as 100% viability. […]
To simulate the microenvironment of ischemic tissues, the MSC cells with or without DNIC priming were cultured using glucose-free DMEM in a humidified hypoxia incubator (1% oxygen; Heracell VIOS 160i, Thermo Fisher Scientific) for 48 h. Cell viability was assessed by live/dead staining or CCK-8 assay.

## COC(=O)CC[SH]1[Fe]([N]=O)([N]=O)[SH](CCC(=O)OC)[Fe]1([N]=O)[N]=O (stereo not shown) [DNIC–COOMe, [(NO)2Fe(μ-SCH2CH2COOCH3)2Fe(NO)2]]
[1]
  Log D7.4: 1.0
[2]
  formation of cGMP: elevated formation of cGMP
[3]
  cell viability under OGD condition: comparable to that of OGD group

## O=[N][Fe]1([N]=O)[SH](CCC(=O)O)[Fe]([N]=O)([N]=O)[SH]1CCC(=O)O (stereo not shown) [DNIC–COOH, [(NO)2Fe(μ-SCH2CH2COOH)2Fe(NO)2]]
[1]
  Log D7.4: −2.3
[1]; ddH2O/n-octanol
  Log P: 1.2
[2]
  formation of cGMP: elevated formation of cGMP
[3]
  cell viability under OGD condition: increase in the number of viable cells

Reference: paper PMC11040670, “Mechanistic and Kinetic Insights into Cellular Uptake of Biomimetic Dinitrosyl Iron Complexes and Intracellular Delivery of NO for Activation of Cytoprotective HO-1” (JACS Au, 2024)
